Assay results published in ChEMBL document CHEMBL4627246, “Pyroglutamide-Based P2X7 Receptor Antagonists Targeting Inflammatory Bowel Disease” (J Med Chem, 2020).

Assays:
Type in all cases: cell-based
HT-29 = assay: Cytotoxicity against human HT-29 cells assessed as effect on cell growth at 10 uM incubated for 48 hrs by sulforhodamine B assay; settings: ht-29, 48 h
OVCAR-8 = assay: Cytotoxicity against human OVCAR8 cells assessed as effect on cell growth at 10 uM incubated for 48 hrs by sulforhodamine B assay; settings: ovcar-8, 48 h
SNB-75 = assay: Cytotoxicity against human SNB75 cells assessed as effect on cell growth at 10 uM incubated for 48 hrs by sulforhodamine B assay; settings: snb-75, 48 h
SK-MEL-2 = assay: Cytotoxicity against human SK-MEL-2 cells assessed as effect on cell growth at 10 uM incubated for 48 hrs by sulforhodamine B assay; settings: sk-mel-2, 48 h
KM12 = assay: Cytotoxicity against human KM12 cells assessed as effect on cell growth at 10 uM incubated for 48 hrs by sulforhodamine B assay; settings: km12, 48 h
BT-549 = assay: Cytotoxicity against human BT549 cells assessed as effect on cell growth at 10 uM incubated for 48 hrs by sulforhodamine B assay; settings: bt-549, 48 h
NCI-H460 = assay: Cytotoxicity against human NCI-H460 cells assessed as effect on cell growth at 10 uM incubated for 48 hrs by sulforhodamine B assay; settings: nci-h460, 48 h
NCI-H522 = assay: Cytotoxicity against human NCI-H522 cells assessed as effect on cell growth at 10 uM incubated for 48 hrs by sulforhodamine B assay; settings: nci-h522, 48 h
RPMI-8226 = assay: Cytotoxicity against human RPMI8226 cells assessed as effect on cell growth at 10 uM incubated for 48 hrs by sulforhodamine B assay; settings: rpmi-8226, 48 h
LOX IMVI = assay: Cytotoxicity against human LOXIMVI cells assessed as effect on cell growth at 10 uM incubated for 48 hrs by sulforhodamine B assay
NCI-H23 = assay: Cytotoxicity against human NCI-H23 cells assessed as effect on cell growth at 10 uM incubated for 48 hrs by sulforhodamine B assay; settings: nci-h23, 48 h
SK-OV-3 = assay: Cytotoxicity against human SKOV3 cells assessed as effect on cell growth at 10 uM incubated for 48 hrs by sulforhodamine B assay; settings: sk-ov-3, 48 h
OVCAR-4 = assay: Cytotoxicity against human OVCAR4 cells assessed as effect on cell growth at 10 uM incubated for 48 hrs by sulforhodamine B assay; settings: ovcar-4, 48 h
SW-620 = assay: Cytotoxicity against human SW620 cells assessed as effect on cell growth at 10 uM incubated for 48 hrs by sulforhodamine B assay; settings: sw-620, 48 h
MOLT-4 = assay: Cytotoxicity against human MOLT4 cells assessed as effect on cell growth at 10 uM incubated for 48 hrs by sulforhodamine B assay; settings: molt-4, 48 h
SNB-19 = assay: Cytotoxicity against human SNB19 cells assessed as effect on cell growth at 10 uM incubated for 48 hrs by sulforhodamine B assay; settings: snb-19, 48 h
SF-295 = assay: Cytotoxicity against human SF295 cells assessed as effect on cell growth at 10 uM incubated for 48 hrs by sulforhodamine B assay; settings: sf-295, 48 h
A549 = assay: Cytotoxicity against human A549/ATCC cells assessed as effect on cell growth at 10 uM incubated for 48 hrs by sulforhodamine B assay; settings: a549, 48 h
IGROV-1 = assay: Cytotoxicity against human IGROV1 cells assessed as effect on cell growth at 10 uM incubated for 48 hrs by sulforhodamine B assay; settings: igrov-1, 48 h
T47D = assay: Cytotoxicity against human T47D cells assessed as effect on cell growth at 10 uM incubated for 48 hrs by sulforhodamine B assay

Measured: Activity

COc1ccc(NC(=O)[C@@H]2C/C(=C\N(C)C)C(=O)N2)cc1
Non-Toxic: all assays above

COc1ccc(N2C(=O)[C@@H]3C/C(=C\N(C)C)C(=O)N3C2N(C)C)cc1 (stereo not given in full)
Non-Toxic: all assays above

O=C(NCc1ccccc1Cl)[C@@H]1CCC(=O)N1Cc1ccccc1Cl
Non-Toxic: all assays above

O=C(NCc1ccc(Cl)cc1Cl)[C@@H]1CCC(=O)N1c1cncs1
Non-Toxic: all assays above

COc1ccc(N2C(=O)CC[C@H]2C(=O)NCc2ccc(Cl)cc2Cl)cc1
Non-Toxic: all assays above

O=C(NCc1ccccc1Cl)[C@@H]1CCC(=O)N1Cc1ccc(Cl)cc1
Non-Toxic: all assays above

O=C(Nc1ccc(Cl)cc1Cl)[C@@H]1CCC(=O)N1Cc1ccccc1Cl
Non-Toxic: all assays above

O=C(NCc1ccc(Cl)cc1Cl)[C@@H]1CCC(=O)N1Cc1ccc(Cl)cc1
Non-Toxic: all assays above

CCCCCCN1C(=O)[C@@H]2C/C(=C\N(C)C)C(=O)N2C1N(C)C (stereo not given in full)
Non-Toxic: all assays above
